Patent publication US20100036088A1, “Selective poly-N-substituted glycine antibiotics” (priority 2008, published 2010)
Where two headings read alike, the source gives them in different places. Square brackets hold non-standard residues; d marks the D form. Peptide text beside a SMILES is read from it. Nrpe = C[C@@H](NCC(=O)O)c1ccccc1; Nspe = C[C@H](NCC(=O)O)c1ccccc1; Nphe = O=C(O)CNCc1ccccc1; Nlys = NCCCCNCC(=O)O

Assays:
human erythrocytes = assay: Hemolysis assay; assay type: cell-based
Method: Hemolysis assays. Erythrocytes were isolated from freshly drawn, heparanized human blood and resuspended to 20 vol % in PBS (pH 7.4). In a 96-well microtiter plate, 100 μL erythrocyte suspension was added to 100 μL peptoid solution in PBS (prepared by 1:2 serial dilutions), or 100 μL PBS in the case of negative controls. 100% hemolysis wells contained 100 μL blood cell suspension with 100 μL 0.2 vol % Triton X-100. The plate was incubated for 1 h at 37° C., then each well was diluted with 150 μL PBS. The plate was then centrifuged at 1200 g for 15 min, 100 μL of the supernatant from each well transferred to a fresh microtiter plate, and A350 measured.
Hemolysis assays. Erythrocytes were isolated from freshly drawn, heparanized human blood and resuspended in PBS (pH 7.4) to make a 20% volume suspension. Peptoid solutions were prepared by serial dilution (2:1) in a 96-well microtiter plate. For test wells, 100 μL of erythrocyte suspension was added to 100 μL of peptoid solution in PBS; PBS without peptoid was used as the negative control and 0.2 vol % Triton X-100 as the positive control that indicates 100% hemolysis. After 1 hour incubation at 37° C., each well was diluted with 150 μL PBS. Plates were then centrifuged at 1,200×g for 15 minutes to pellet the cells. 30 μL of the supernatant from each well were transferred to the corresponding well of a second 96-well plate that contains 70 μL PBS.

E. coli (ATCC 35218) = assay type: cell-based; settings: ATCC 35218
Method: (§1) Whereas the preceding generation of molecules was designed to elucidate structure function relationships of specific molecular parameters (chirality, length, hydrophobicity, etc.), another generation compounds were designed explicitly to explore effects on selectivity. Antimicrobial activity of these compounds was tested against bacterial strains E. coli (ATTC 35218) and B. subtilis (ATTC 6633) in cation-adjusted MHB using the microdilution protocols previously described. The sequences, antimicrobial activities, hemolytic activities, and metabolic inhibitory concentrations against NIH 3T3 mouse fibroblast cells are summarized in Table 3 and the rationale of their design is described below.
(§2) The potencies of all compounds were determined against representative Gram-negative (E. coli ATCC 35218) and Gram-positive (B. subtilis ATCC 6633) biosafety level 1 (BSL1) organisms. In addition to hemolytic activity, the conventional measure of toxicity to mammalian cells, the effect of each ampetoid on NIH 3T3 mouse fibroblast cells was determined using the MTS tetrazolium salt-based calorimetric assay. While hemolysis measures the degree to which erythrocytes are lysed, the MTS assay indirectly quantifies the extent to which cellular metabolic activity is inhibited.
(§3) Screening antibacterial assays. MICs were determined in 96-well microtiter plates in accordance with CLSI M7-A6 protocols. Peptoid solutions with 50 μL total volume were prepared using 2:1 serial dilutions. 50 μL of bacteria inoculum (1×10^6 CFU/mL) prepared in cation-adjusted Mueller-Hinton broth (CAMHB) was added to test wells. Control wells contained 100 μL MHB (no growth) or 50 μL inoculums with 50 μL MHB with no peptoid. […] Reported values were reproducible over three experiments, each containing two parallel trials.

B. subtilis (ATCC 6633) = assay type: cell-based; settings: ATCC 6633
Method: as §1, §2, §3

[1] = MTS assay, metabolic inhibition; assay type: cell-based, mouse
Method: as §2
MTS assays. NIH/3T3 cells (ATCC Corporation) cultured at 37° C. and 5% CO2 in complete Dulbecco's modified eagle's media (CDMEM) supplemented with 1% sodium pyruvate, 1% penicillin-streptomycin, 1.5 g/L NaHCO3, and 10% fetal bovine serum. Cells were seeded at a density of 5,000 cells per well for NIH/3T3 cells in 96-well plates (100 μl total volume). A peptoid solution plate (100 μL total volume per well) was prepared by serial dilution of aqueous peptoid stock solution in Hank's balanced salt solution (HBSS) media. The day-old cell monolayers were washed with HBSS and media was replaced with 100 μL HBSS. The contents of the peptoid solution plate were transferred onto corresponding wells of the cell monolayer plate, and 40 μL MTS reagent (Promega, Inc.) was added to each well. After incubating for 3 hours at 37° C., absorbance at 490 nm was determined. […] The average of six replicates is reported.

[2] = Table 6, NIH 3T3 mouse fibroblast cells

E. coli MIC (E. coli (ATCC 35218)) | B. subtilis MIC (B. subtilis (ATCC 6633)) | IC50 [1] | SMILES | HD10 (human erythrocytes) | HD50 (human erythrocytes) | HD10 (human erythrocytes; Table 6) | HD50 (human erythrocytes; Table 6) | E. coli MIC (E. coli (ATCC 35218); Table 6) | B. subtilis MIC (B. subtilis (ATCC 6633); Table 6) | IC50 [1, 2]
12.5 µM | 1.6 µM | 12 µM | C[C@@H](c1ccccc1)N(CC(N)=O)C(=O)CN(C(=O)CN(CCCCN)C(=O)CN(C(=O)CN(C(=O)CN(CCCCN)C(=O)CN(C(=O)CN(C(=O)CN(CCCCN)C(=O)[C@@H]1CCCN1C(=O)CN(C(=O)CNCCCCN)[C@@H](C)c1ccccc1)[C@@H](C)c1ccccc1)[C@@H](C)c1ccccc1)[C@@H](C)c1ccccc1)[C@@H](C)c1ccccc1)[C@@H](C)c1ccccc1 [1-Pro3, H-Nlys-Nspe-L-Pro-(Nlys-Nspe-Nspe)3-NH2] (H-[Nlys][Nspe]P[Nlys][Nspe][Nspe][Nlys][Nspe][Nspe][Nlys][Nspe][Nspe]-NH2) | 74 µM | > 200 µM |  |  |  |  | 
6.3 µM | 0.78 µM | 11 µM | C[C@@H](c1ccccc1)N(CC(=O)N(CC(=O)N(CCCCN)CC(=O)N(CC(=O)N(CC(=O)N(CCCCN)CC(=O)N(CC(=O)N(CC(=O)N(CCCCN)CC(=O)N(CC(=O)N(CC(N)=O)Cc1ccccc1)Cc1ccccc1)Cc1ccccc1)Cc1ccccc1)Cc1ccccc1)Cc1ccccc1)Cc1ccccc1)C(=O)CNCCCCN [1ach-Nspe2, H-(Nlys-Nspe-Npm)-(Nlys-Npm-Npm)3-NH2] (H-[Nlys][Nspe][Nphe][Nlys][Nphe][Nphe][Nlys][Nphe][Nphe][Nlys][Nphe][Nphe]-NH2) | 160 µM | > 200 µM |  |  |  |  | 
6.3 µM | 1.6 µM | 15 µM | C[C@@H](c1ccccc1)N(CC(N)=O)C(=O)CN(C(=O)CN(CCCCN)C(=O)CN(Cc1ccccc1)C(=O)CN(Cc1ccccc1)C(=O)CN(CCCCN)C(=O)CN(C(=O)CN(C(=O)CN(CCCCN)C(=O)CN(Cc1ccccc1)C(=O)CN(Cc1ccccc1)C(=O)CNCCCCN)[C@@H](C)c1ccccc1)[C@@H](C)c1ccccc1)[C@@H](C)c1ccccc1 [1-Npm2,3,8,9, H-(Nlys-Npm-Npm-Nlys-Nspe-Nspe)2-NH2] |  | > 200 µM |  |  |  |  | 
 |  |  | C[C@H](c1ccccc1)N(CC(=O)N(CC(N)=O)[C@@H](C)c1ccccc1)C(=O)CN(CCCCN)C(=O)CN(C(=O)CN(C(=O)CN(CCCCN)C(=O)CN(C(=O)CN(C(=O)CN(CCCCN)C(=O)CN(C(=O)CN(C(=O)CNCCCCN)[C@H](C)c1ccccc1)[C@@H](C)c1ccccc1)[C@H](C)c1ccccc1)[C@@H](C)c1ccccc1)[C@H](C)c1ccccc1)[C@@H](C)c1ccccc1 [1-Nrpe2,5,8,11, H-(Nlys-Nrpe-Nspe)4-NH2] (H-[Nlys][Nrpe][Nspe][Nlys][Nrpe][Nspe][Nlys][Nrpe][Nspe][Nlys][Nrpe][Nspe]-NH2) |  |  | 22 µM | 95 µM | 6.3 µM | 1.6 µM | 5.2 µM
50 µM | 0.78 µM | 83 µM | C[C@H](NCC(=O)N(CCCCN)CC(=O)N(CC(=O)N(CCCCN)CC(=O)N(CCCCN)CC(=O)N(CC(=O)N(CC(=O)N(CCCCN)CC(=O)N(CC(=O)N(CCCCN)CC(=O)N(CCCCN)CC(=O)N(CC(N)=O)[C@@H](C)c1ccccc1)[C@@H](C)c1ccccc1)[C@@H](C)c1ccccc1)[C@@H](C)c1ccccc1)[C@@H](C)c1ccccc1)c1ccccc1 [1B-Nlys4,10, H-(Nspe-Nlys-Nspe-Nlys-Nlys-Nspe)2-NH2] (H-[Nspe][Nlys][Nspe][Nlys][Nlys][Nspe][Nspe][Nlys][Nspe][Nlys][Nlys][Nspe]-NH2) | >200/>200 μM | >200/>200 μM |  |  |  |  | 
50 µM | 1.6 µM | 71 µM | C[C@@H](c1ccccc1)N(CC(N)=O)C(=O)CN(C(=O)CN(CCCCN)C(=O)[C@@H]1CCCN1C(=O)CN(C(=O)CN(CCCCN)C(=O)CN(C(=O)CN(C(=O)CN(CCCCN)C(=O)[C@@H]1CCCN1C(=O)CN(C(=O)CNCCCCN)[C@@H](C)c1ccccc1)[C@@H](C)c1ccccc1)[C@@H](C)c1ccccc1)[C@@H](C)c1ccccc1)[C@@H](C)c1ccccc1 [1-Pro3,9, H-(Nlys-Nspe-L-Pro-Nlys-Nspe-Nspe)2-NH2] (H-[Nlys][Nspe]P[Nlys][Nspe][Nspe][Nlys][Nspe]P[Nlys][Nspe][Nspe]-NH2) | >200/>200 μM | >200/>200 μM |  |  |  |  | 
3.1 µM | 0.78 µM | 5.6 µM | C[C@@H](c1ccccc1)N(CC(=O)N(CCCCN)CC(=O)N(CC(=O)N(CC(=O)N(CCCCN)CC(=O)N(CC(=O)N(CC(=O)N(CCCCN)CC(=O)N(CC(=O)N(CC(=O)N(CCCCN)CC(N)=O)[C@@H](C)c1ccccc1)[C@@H](C)c1ccccc1)[C@@H](C)c1ccccc1)[C@@H](C)c1ccccc1)[C@@H](C)c1ccccc1)[C@@H](C)c1ccccc1)C(=O)CN(C(=O)CNCCCCN)[C@@H](C)c1ccccc1 [113mer, H-(Nlys-Nspe-Nspe)4-Nlys-NH2] (H-[Nlys][Nspe][Nspe][Nlys][Nspe][Nspe][Nlys][Nspe][Nspe][Nlys][Nspe][Nspe][Nlys]-NH2) | 21 µM | > 100 µM |  |  |  |  | 
50 µM | 1.6 µM | 85 µM | C[C@@H](c1ccccc1)N(CC(N)=O)C(=O)CN(CCCCN)C(=O)CN(CCCCN)C(=O)CN(C(=O)CN(C(=O)CN(CCCCN)C(=O)CN(C(=O)CN(CCCCN)C(=O)CN(CCCCN)C(=O)CN(C(=O)CN(C(=O)CNCCCCN)[C@@H](C)c1ccccc1)[C@@H](C)c1ccccc1)[C@@H](C)c1ccccc1)[C@@H](C)c1ccccc1)[C@@H](C)c1ccccc1 [1-Nlys5,11, H-(Nlys-Nspe-Nspe-Nlys-Nlys-Nspe)2-NH2] (H-[Nlys][Nspe][Nspe][Nlys][Nlys][Nspe][Nlys][Nspe][Nspe][Nlys][Nlys][Nspe]-NH2) | >100/>100 μM | >100/>100 μM |  |  |  |  | 
 |  |  | C[C@H](c1ccccc1)N(CC(=O)N(CCCCN)CC(=O)N(CC(=O)N(CC(=O)N(CCCCN)CC(=O)N(CC(=O)N(CC(=O)N(CCCCN)CC(=O)N(CC(=O)N(CC(N)=O)[C@@H](C)c1ccccc1)[C@@H](C)c1ccccc1)[C@@H](C)c1ccccc1)[C@@H](C)c1ccccc1)[C@H](C)c1ccccc1)[C@H](C)c1ccccc1)C(=O)CN(C(=O)CNCCCCN)[C@H](C)c1ccccc1 [1-Nrpe2,3,5,6, H-(Nlys-Nrpe-Nrpe)2-(Nlys-Nspe-Nspe)2-NH2] (H-[Nlys][Nrpe][Nrpe][Nlys][Nrpe][Nrpe][Nlys][Nspe][Nspe][Nlys][Nspe][Nspe]-NH2) |  |  | 25 µM | 96 µM | 6.3 µM | 0.78 µM | 4.8 µM
50 µM | 0.78 µM | 16 µM | C[C@H](NCC(=O)N(CCCCN)CC(=O)N(CC(=O)N(CCCCN)CC(=O)N(CCCCN)CC(=O)N(CC(=O)N(CC(=O)N(CCCCN)CC(=O)N(CC(=O)N(CCCCN)CC(=O)N(CCCCN)CC(=O)N(CC(=O)N(CC(=O)N(CCCCN)CC(=O)N(CC(N)=O)[C@@H](C)c1ccccc1)[C@@H](C)c1ccccc1)[C@@H](C)c1ccccc1)[C@@H](C)c1ccccc1)[C@@H](C)c1ccccc1)[C@@H](C)c1ccccc1)[C@@H](C)c1ccccc1)c1ccccc1 [1B15mer-Nlys4,10, H-(Nspe-Nlys-Nspe-Nlys-Nlys-Nspe)2-Nspe-Nlys-Nspe-NH2] (H-[Nspe][Nlys][Nspe][Nlys][Nlys][Nspe][Nspe][Nlys][Nspe][Nlys][Nlys][Nspe][Nspe][Nlys][Nspe]-NH2) | >200/>200 μM | >200/>200 μM |  |  |  |  | 
